Patent publication US20250255889A1, “METHODS FOR TREATMENT SELECTION FOR CHRONIC LYMPHOCYTIC LEUKEMIA (CLL)” (The Broad Institute, Inc., priority 2022, published 2025)

Tested on: primary CLL samples (CD19+ and CD5+ cells)
Assay: High-throughput dynamic BH3 profiling (HT-DBP): drug-induced apoptotic priming (delta priming), cytochrome c release after BH3 peptide
Assay type: cell-based, human
Description: By “delta priming” is meant the difference in priming of a cell for apoptosis measured in the presence of an agent for treating chronic lymphocytic leukemia relative to priming of the cell in the presence of an inert carrier. In embodiments, the inert carrier is DMSO.
Dynamic BH3 Profiling Dynamic BH3 profiling (DBP) is a drug screening assay that measures the relative priming of cells in a biological sample for cell death by apoptosis in the presence of a specific compound and/or a pro-apoptotic peptide. By “Dynamic BH3 profiling” is meant measuring drug-induced changes in mitochondrial apoptotic priming. Mitochondrial apoptotic priming is a measure of how close to the apoptotic threshold a cell is. A highly primed cell has relatively less anti-apoptotic binding site availability and is closer to the apoptotic threshold than a poorly primed cell, which has more anti-apoptotic availability to buffer an apoptotic assault and is further from the apoptotic threshold. BH3 peptides derived from the BH3 domain of pro-apoptotic BH3-only proteins provoke a response from viable mitochondria. Cytochrome c released from the mitochondria after a short incubation with BH3 peptide is used as a surrogate for priming. In general, the more sensitive a mitochondrion is to a BH3 peptide, the more primed it is. A drug treatment that enhances priming will cause mitochondria to undergo MOMP more easily when incubated with a fixed concentration of a promiscuously binding BH3 peptide, such as BIM BH3 peptide, compared to control-treated cells. See, for example, Potter, D. S. & Letai, A. To prime, or not to prime: that is the question. Cold Spring Harb. Symp. Quant. Biol. 81, 131-140 (2016); Montero, J. et al. Drug-induced death signaling strategy rapidly predicts cancer response to chemotherapy. Cell 160, 977-989 (2015); Daniels, V. W. et al. Metabolic perturbations sensitize triple-negative breast cancers to apoptosis induced by BH3 mimetics. Sci.
Dynamic BH3 profiling and peptides for use therein are described, for example, in Certo, et al., “Mitochondria primed by death signals determine cellular addiction to antiapoptotic BCL-2 family members,” Cancer Cell, 9:351-365 (2006); and in Foight, et al. “Designed BH3 Peptides with High Affinity and Specificity for Targeting Mcl-1 in Cells,” ACS Chemical Biology, 9:1962-1968 (2014), the disclosures of which are incorporated herein by reference in their entireties for all purposes. The DBP assay enables one to compare the response of a patient tumor sample to a specific drug relative to other drugs and relative to an inert control (e.g., DMSO).
To address the challenge of selecting a proper treatment for a chronic lymphocytic leukemia, experiments were undertaken to optimize high-throughput dynamic BH3 profiling (HT-DBP) for evaluation of the drug sensitivities of CLL samples (FIGS. 1, 13, 5A, 5B, 6A, 6B, and 7A-7C).

[1] = peptide BAD 0.3 uM, feature BIRC3
[2] = peptide BAD 0.3 uM, feature EC-m2
[3] = peptide BAD 0.3 uM, feature FBXW7
[4] = peptide BAD 0.3 uM, feature ITIH2
[5] = peptide BAD 0.3 uM, feature MYD88
[6] = peptide BAD 0.3 uM, feature gain_19p13.3
[7] = peptide BAD 0.3 uM, feature i-CLL
[8] = peptide BAD 0.3 uM, feature loss_3p21.31
[9] = peptide BAD 0.3 uM, feature loss_5p15.33
[10] = peptide BAD 0.3 uM, feature loss_7q36.1
[11] = peptide BAD 0.3 uM, feature loss_8p
[12] = peptide BAD 0.3 uM, feature loss_12p13.31a
[13] = peptide BAD 0.3 uM, feature loss_14q32.12
[14] = peptide BAD 0.3 uM, feature loss_17p13.1
[15] = peptide BAD 0.3 uM, feature loss_17p13.3
[16] = peptide BAD 0.3 uM, feature loss_17q11.2
[17] = peptide BIM 0.01 uM, feature EC-i
[18] = peptide BIM 0.01 uM, feature loss_1p36.11
[19] = peptide BIM 0.01 uM, feature loss_3p13
[20] = peptide BIM 0.01 uM, feature loss_10q24.32
[21] = peptide BIM 0.01 uM, feature loss_18q21.2
[22] = peptide BIM 0.01 uM, feature priortrt_Post
[23] = peptide MS1 2.5 uM, feature EC-m4
[24] = peptide PUMA 1 uM, feature loss_1q21.3
[25] = peptide PUMA 1 uM, feature loss_7p22.2
[26] = peptide BIM 0.01 uM, feature loss_15q15.1b
[27] = peptide BIM 0.01 uM, feature loss_20p11.22
[28] = peptide BAD 0.3 uM, feature priortrt_Post
[29] = peptide PUMA 1 uM, feature priortrt_Post
[30] = peptide BAD 0.3 uM, feature M-CLL
[31] = peptide BAD 0.3 uM, feature U-CLL

Cc1sc2c(c1C)C(c1ccc(Cl)cc1)=N[C@@H](CC(=O)OC(C)(C)C)c1nnc(C)n1-2 [JQ1]
direction (Feature EC-i): Sensitive
direction (Feature FBXW7): Sensitive
direction [1]: Sensitive
dprim_pearson_corr [1]: 0.6355
direction [2]: Sensitive
dprim_pearson_corr [2]: 0.3877
direction [3]: Sensitive
dprim_pearson_corr [3]: 0.5086
direction [4]: Sensitive
dprim_pearson_corr [4]: 0.6355
direction [5]: Resistant
dprim_pearson_corr [5]: −0.3438
direction [6]: Sensitive
dprim_pearson_corr [6]: 0.359
direction [7]: Sensitive
dprim_pearson_corr [7]: 0.3327
direction [8]: Resistant
dprim_pearson_corr [8]: −0.3438
direction [9]: Resistant
dprim_pearson_corr [9]: −0.3996
direction [10]: Resistant
dprim_pearson_corr [10]: −0.3438
direction [11]: Resistant
dprim_pearson_corr [11]: −0.3438
direction [12]: Resistant
dprim_pearson_corr [12]: −0.3996
direction [13]: Resistant
dprim_pearson_corr [13]: −0.3438
direction [14]: Sensitive
dprim_pearson_corr [14]: 0.507
direction [15]: Resistant
dprim_pearson_corr [15]: −0.3996
direction [16]: Sensitive
dprim_pearson_corr [16]: 0.6355
direction [17]: Sensitive
dprim_pearson_corr [17]: 0.3826
direction [18]: Sensitive
dprim_pearson_corr [18]: 0.4365
direction [19]: Sensitive
dprim_pearson_corr [19]: 0.3364
direction [20]: Sensitive
dprim_pearson_corr [20]: 0.4365
direction [21]: Sensitive
dprim_pearson_corr [21]: 0.4365
direction [22]: Sensitive
dprim_pearson_corr [22]: 0.3609
direction [23]: Sensitive
dprim_pearson_corr [23]: 0.3901
direction (peptide PUMA 1 uM, feature ATM): Resistant
direction (peptide PUMA 1 uM, feature EC-i): Resistant
direction (peptide PUMA 1 uM, feature MYD88): Resistant
direction (peptide PUMA 1 uM, feature gain_16p11.2): Resistant
direction (peptide PUMA 1 uM, feature loss_1p36.11): Sensitive
direction [24]: Resistant
direction (peptide PUMA 1 uM, feature loss_2q31.1): Resistant
direction (peptide PUMA 1 uM, feature loss_3p13): Sensitive
direction (peptide PUMA 1 uM, feature loss_3p21.31): Resistant
direction (peptide PUMA 1 uM, feature loss_5p15.33): Resistant
direction [25]: Resistant
direction (peptide PUMA 1 uM, feature loss_7q36.1): Resistant
direction (peptide PUMA 1 uM, feature loss_8p): Resistant
direction (peptide PUMA 1 uM, feature loss_10p12.2): Resistant
direction (peptide PUMA 1 uM, feature loss_10q24.32): Sensitive
direction (peptide PUMA 1 uM, feature loss_12p13.31a): Resistant
direction (peptide PUMA 1 uM, feature loss_14q32.12): Resistant
direction (peptide PUMA 1 uM, feature loss_16q22.1): Resistant
direction (peptide PUMA 1 uM, feature loss_17p13.3): Resistant
direction (peptide PUMA 1 uM, feature loss_18q21.2): Sensitive

Nc1cccc2c1CN(C1CCC(=O)NC1=O)C2=O (stereo not drawn) [Lenalidomide]
direction (peptide BAD 0.3 uM, feature loss_10q24.32): Resistant
direction [26]: Resistant
direction [27]: Resistant
direction (peptide MS1 2.5 uM, feature CNOT3): Sensitive

NC1(c2ccc(-c3nc4ccn5c(=O)[nH]nc5c4cc3-c3ccccc3)cc2)CCC1 [MK-2206]
direction (Feature priortrt_Post): Resistant
direction (peptide BAD 0.3 uM, feature EC-i): Resistant
direction (peptide BAD 0.3 uM, feature IGLV321_R110): Resistant
direction (peptide BAD 0.3 uM, feature RPS15): Resistant
direction (peptide BAD 0.3 uM, feature loss_6q): Resistant
direction [28]: Resistant
direction (peptide BIM 0.01 uM, feature BIRC3): Sensitive
direction (peptide BIM 0.01 uM, feature ITIH2): Sensitive
direction (peptide BIM 0.01 uM, feature loss_9p21.3): Sensitive
direction (peptide BIM 0.01 uM, feature loss_17q11.2): Sensitive
direction (peptide MS1 2.5 uM, feature EC-i): Resistant
direction (peptide MS1 2.5 uM, feature IGLV321_R110): Resistant
direction (peptide MS1 2.5 uM, feature RPS15): Resistant
direction (peptide MS1 2.5 uM, feature loss_6q): Resistant
direction [29]: Resistant

CCC[C@H](N[C@H]1CCc2cc(F)cc(F)c2C1)C(=O)Nc1cn(C(C)(C)CNCC(C)(C)C)cn1 [Nirogacestat]
direction (peptide BAD 0.3 uM, feature loss_1p36.11): Resistant
direction (peptide BAD 0.3 uM, feature loss_3p13): Resistant
direction (peptide BAD 0.3 uM, feature loss_18q21.2): Resistant
direction (peptide BIM 0.01 uM, feature EC-m2): Sensitive
direction (peptide BIM 0.01 uM, feature tri_12): Sensitive
direction (peptide PUMA 1 uM, feature BIRC3): Sensitive
direction [24]: Sensitive
direction [25]: Sensitive
direction (peptide PUMA 1 uM, feature loss_9p21.3): Sensitive
direction (peptide PUMA 1 uM, feature loss_17q11.2): Sensitive

COc1ccc(C2=N[C@@H](c3ccc(Cl)cc3)[C@@H](c3ccc(Cl)cc3)N2C(=O)N2CCNC(=O)C2)c(OC(C)C)c1 [Nutlin-3]
drug-induced apoptotic priming by expression cluster (EC-m1): most sensitive
direction (Feature FBXW7): Resistant
direction (Feature priortrt_Post): Resistant
drug-induced apoptotic priming (across CLL subtypes, 65 primary CLL samples, 20 hours drug): high priming
direction [30]: Sensitive
dprim_pearson_corr [30]: 0.4093
direction [31]: Resistant
dprim_pearson_corr [31]: −0.4093
direction [28]: Resistant
dprim_pearson_corr [28]: −0.4166
direction [23]: Sensitive
dprim_pearson_corr [23]: 0.3373
direction (peptide PUMA 1 uM, feature EC-m4): Sensitive
direction (peptide PUMA 1 uM, feature FBXW7): Resistant
direction (peptide PUMA 1 uM, feature loss_17p13.1): Resistant
direction [29]: Resistant

CC(C)c1cc(C(=O)N2Cc3ccc(CN4CCN(C)CC4)cc3C2)c(O)cc1O [Onalespib]
direction (peptide BAD 0.3 uM, feature loss_1q42.13): Sensitive
direction (peptide BAD 0.3 uM, feature loss_13q14.13): Sensitive
direction (peptide BAD 0.3 uM, feature loss_16p11.2): Sensitive
direction [26]: Resistant
direction [27]: Resistant
direction (peptide MS1 2.5 uM, feature loss_19p13.11): Sensitive
direction (peptide PUMA 1 uM, feature loss_6q21): Resistant
